Here are results for 74 compounds from PubChem BioAssay AID449762 (Southern Research Specialized Biocontainment Screening …, 2010).

In this experiment the test system is M. tuberculosis H37Rv growth inhibition, 7H9 media. Briefly: M. tuberculosis growth inhibition, HTS (AID 449762).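 On all read-outs here: bacterial growth assessed after seven days of incubation.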 To be noted: for IC90: measured here: IC90 growth inhibition.

Molecules are shown by their SMILES. Results filed as inconclusive are left out. A value given as a limit tells only on which side of the number the result lay.

As a reminder, the IC50 is the midpoint of a concentration-inhibition curve. As usually defined, the IC90 is the concentration at which the effect reaches the 90% level. For the compound `CCC(C)Nc1ccc(NC(C)CC)cc1` (stereo not drawn), the IC50 was 1.12 µM and the IC90 amounted to 1.69 µM.

With `O=c1c2c(nc3nc(NCc4ccc(Cl)cc4)[nH]n13)CCC2`, the 50% inhibitory concentration (IC50) is 6.28 µM and the IC90 was 7.32 µM.

Take `O=C(c1cc2ccccc2o1)N1CCN(S(=O)(=O)c2ccc(Cl)s2)CC1`: the IC50 was 4.01 µM and the concentration for an effect of 90% (IC90) was determined as 13.1 µM.

In the case of `CCOC(=O)c1ccc2c(c1)C(=O)N(C1CCCCC1)C2=O`, the IC50 was 98.3 µM and the 90% effect concentration (IC90) was more than 100 µM.

`CCN(CC)c1ccc2c(Cl)c(Br)c(=O)oc2c1`: the IC50 was 13.7 µM and the IC90 came out at 43.4 µM.

As for `CCOC(=O)c1sc(C)c2c(=O)n(CC(=O)c3ccc(Br)cc3)nnc12`, the half-maximal inhibitory concentration (IC50) is 74.3 µM and the IC90 is more than 100 µM.

On to `Cc1ccc(-c2noc(C3CCCN(C(=O)c4ccc(C(C)(C)C)cc4)C3)n2)o1` (stereo not drawn), for which the IC50 is 48.2 µM and the IC90 is 55.2 µM.

Take `COc1ccccc1OCCN1CSC(=S)N(C)C1`: the IC50 is 6.34 µM and the IC90 was 15.3 µM.

With `CCc1ccc(NC2=NCC(c3ccccc3)S2)cc1` (stereo not drawn), the IC50 is 3.03 µM and the IC90 was more than 100 µM.

As to `O=[N+]([O-])c1ccc(-c2nc(-c3cccs3)c(-c3cccs3)[nH]2)cc1`, the IC50 was 21.7 µM and the IC90 is more than 100 µM.

In the case of `CC(C)OC(=O)CCCCCN1C(=O)CSC1=S`, the IC50 is 3.5 µM and the concentration for an effect of 90% (IC90) stood at 8.17 µM.

Consider `CC1CCN(C(=O)C2CCN(c3nnc(-n4cccc4)s3)CC2)CC1`, for which the IC50 is 2.96 µM and the IC90 was found to be 3.37 µM.

With `COc1ccc(C[C@H](N)C(=O)N[C@H]2[C@@H](O)[C@H](n3cnc4c(N(C)C)ncnc43)O[C@@H]2CO)cc1`, the 50% inhibitory concentration (IC50) was 3.14 µM and the IC90 worked out at 3.54 µM.

On to `CCOC(=O)[C@@H]1[C@H]2COc3cc(OC)ccc3[C@H]2N2C(=O)N(c3ccc(C(F)(F)F)cc3)C(=O)[C@]12C`, for which the IC50 is 5.77 µM and the IC90 turned out to be 6.48 µM.

`N#Cc1c(SCC(N)=O)nsc1SCc1ccccc1Cl`: the IC50 was 12.6 µM and the IC90 came out at 34.7 µM.

Consider `CCN(CC)Cc1nc2c(c(=O)[nH]1)C(CC)(CC)Cc1ccccc1-2`, for which the IC50 is 4.46 µM and the 90% effect concentration (IC90) was found to be 18.4 µM.

Regarding `CCOC(=O)CCCNC(=O)COC(=O)c1cc(Br)c(Br)s1`, the IC50 was 9.86 µM and the IC90 is more than 100 µM.

Consider `COC(=O)C1=C(C)NC(=O)/C1=C\c1cc(C)n(-c2cccc(C)c2)c1C`, for which the IC90 is more than 100 µM.

Consider `C=CCOc1ccc2c(c1)C(=NO)c1cc(OCC=C)ccc1-2`, for which the IC50 is 5.82 µM and the IC90 was found to be 9.27 µM.

With `Cc1cc(-c2ccc(Cl)cc2)c2cnn(C(C)C)c2n1`, the IC50 is 25.5 µM and the IC90 is 44.1 µM.

Turning to `CCc1ccc2oc(-c3cc(N=Cc4cccc(OC)c4O)ccc3O)nc2c1`, the IC50 is 35.8 µM and the IC90 stood at 69.3 µM.

As to `CC(C)(C)c1ccc(-c2nc(-c3ccncc3)no2)cc1`, the IC50 was 9.16 µM and the IC90 was found to be 33.6 µM.

On to `Cc1c(CN(C)C)c2c(n1Cc1ccccc1)C(=O)c1ccc(Br)cc1-2`, for which the IC50 was 17.6 µM and the IC90 was determined as 22 µM.

Consider `O=C(Oc1ccccc1-c1nnco1)c1ccc(Cl)cc1`, for which the IC50 is 10.3 µM and the IC90 was found to be 44.7 µM.

Turning to `Cc1ccnc(N2CCC(C(=O)Nc3cccc(C(F)(F)F)c3)CC2)n1`, the IC50 was 47.5 µM and the concentration for an effect of 90% (IC90) is more than 100 µM.

Turning to `COc1ccccc1/C=C/C1=NC(=C\C=C/c2ccccc2)/C(=O)O1`, the 90% effect concentration (IC90) was more than 100 µM.

With `COc1ccc(N=c2ssnc2Cl)cc1`, the IC50 is 38.9 µM and the IC90 is more than 100 µM.

As for `CCOc1cc(/C=N/Nc2nc(Nc3ccccc3)nc(N3CCCCC3)n2)ccc1OCC(=O)O`, the IC50 is 7.04 µM and the 90% effect concentration (IC90) is 23.4 µM.

As for `NCCCn1c(C(=O)c2ccc(Cl)cc2)c2ccc([N+](=O)[O-])cc2[n+]1[O-]`, the IC50 is 23.9 µM and the IC90 was determined as 32.3 µM.

For `COC(=O)c1c(NC(=S)NN2CCN(C)CC2)sc2c1CCC(C)C2` (stereo not drawn), the IC50 is 23 µM and the IC90 amounted to 25.9 µM.

For `COc1cc2c(C(=O)N3CCN(c4cccc(Cl)c4)CC3)cn(CC(C)C)c(=O)c2cc1OC`, the IC50 is 47.7 µM and the IC90 is 53.9 µM.

Turning to `Cc1nn(C(C)(C)C)c(NC(=O)c2ccc(Cl)cc2Cl)c1Br`, the IC50 was 2.97 µM and the IC90 was more than 100 µM.

As to `CCn1c(C)c(C)c2cc(C(=O)Nc3cccc(Cl)c3)ccc21`, the IC50 was 35 µM and the IC90 is more than 100 µM.

As for `O=C(O)c1ccccc1C(=O)NNc1ccc(Cl)cc1Cl`, the concentration for an effect of 90% (IC90) is more than 100 µM.

`O=C(COc1cccc(Oc2ccccc2)c1)Nc1ncccn1`: the IC50 is 37.7 µM and the IC90 was more than 100 µM.

As for `CCOc1[nH]n(-c2ccccc2)c(=O)c1C=Nc1ccc(OC)cc1`, the IC50 is 36.5 µM and the IC90 was more than 100 µM.

In the case of `COc1ccc(NC(=O)CN(C)CC(=O)Nc2sc3c(c2C(N)=O)CCC3)cc1`, the 50% inhibitory concentration (IC50) is 49.9 µM and the 90% effect concentration (IC90) was 98 µM.

Turning to `CCc1ccc(Nc2n[n+](C)c(-c3ccncc3)s2)cc1`, the IC50 is 45.3 µM and the IC90 came to 51.3 µM.

Regarding `O=c1c2ccc(Cl)cc2nc(-c2ccc([N+](=O)[O-])cc2)n1O`, the IC50 was 82.6 µM and the concentration for an effect of 90% (IC90) is more than 100 µM.

Consider `CCOc1ccc(-c2nn3c(-c4ccccc4)nnc3s2)cc1`, for which the half-maximal inhibitory concentration (IC50) is 29.2 µM and the concentration for an effect of 90% (IC90) is more than 100 µM.

Take `CCOC(=O)c1sc2nc3n(c(=O)c2c1C)CCC(C)CC3` (stereo not drawn): the half-maximal inhibitory concentration (IC50) is 17 µM and the IC90 was 39 µM.

`Cc1c(NC(=O)c2ccc([N+](=O)[O-])o2)cccc1-c1nc2ncccc2o1`: the IC50 is 8.36 µM and the IC90 was more than 25 µM.

For `O=C1Nc2cc(C(=O)NCCCN3CCOCC3)ccc2S/C1=C/c1cccc(Cl)c1`, the 50% inhibitory concentration (IC50) is 26.3 µM and the IC90 was 41 µM.

As to `COc1ccccc1NC(=O)c1ccc(NC(=O)CSc2nnnn2C)cc1`, the IC50 was 2.89 µM and the IC90 stood at 13.8 µM.

For the compound `Cc1cc(/C=C(/C#N)c2cccc(F)c2)c(C)n1-c1cccnc1`, the IC90 is more than 100 µM.

`O=C1CN(CC(=O)N2CCCCC2)c2ccccc2O1`: the IC50 is 23.6 µM and the IC90 turned out to be 27.4 µM.

Consider `O=C(Nc1ccc(Cl)cc1)N1CCN(c2ccc3nnc(-c4ccc(F)cc4)n3n2)CC1`, for which the concentration for half-maximal inhibition (IC50) is 13.8 µM and the IC90 was 26.4 µM.

For `Cc1ccc(C(=O)Sc2cccccc2=O)cc1`, the IC50 was 0.96 µM and the IC90 was 2.48 µM.

Turning to `COc1ccccc1Nc1nc(N)nc(CCl)n1`, the IC50 was 1.67 µM and the IC90 turned out to be 8.82 µM.

Regarding `CCCCOc1ccc(C(=O)Oc2ccc(C)nc2)cc1`, the IC50 is 13.8 µM and the IC90 amounted to 72.3 µM.

In the case of `COC(=O)[C@@H](NC(=O)c1cc(COc2cncc(Cl)c2)on1)c1ccccc1`, the IC50 was 1.19 µM and the IC90 came out at 3.97 µM.

As to `COc1ccc(-c2cn(Cc3ccc(C(=O)NCc4ccc(C)cc4)cc3)c(C(C)N)n2)cc1` (stereo not drawn), the half-maximal inhibitory concentration (IC50) was 46.5 µM and the IC90 came to 53.2 µM.

Regarding `N#CC(C(=O)NCc1ccco1)c1nc2ccccc2nc1N1CCOCC1` (stereo not drawn), the IC50 was 43 µM and the IC90 stood at 45.2 µM.

Consider `NC(=S)N/N=C/c1ccc(-c2ccccc2)o1`, for which the 50% inhibitory concentration (IC50) is 48.8 µM and the IC90 is 75 µM.

`Cc1ccc(/C=C(\NC(=O)c2ccc(C)cc2)c2nc(=S)[nH][nH]2)cc1`: the IC50 was 39.5 µM and the IC90 amounted to 48.9 µM.

As to `Cn1nnc(NC(=S)NC(=O)c2ccc(-c3ccc(Br)cc3)o2)n1`, the IC90 was more than 100 µM.

Regarding `COc1cc(C(=O)/C=C/c2cccnc2)c([N+](=O)[O-])cc1OC`, the IC50 was 5.52 µM and the IC90 is 8.56 µM.

In the case of `O=[N+]([O-])c1cc([N+](=O)[O-])c2cc3ccccc3nc2c1`, the half-inhibitory concentration (IC50) is less than 0.2 µM and the IC90 amounted to 0.81 µM.

Take `Oc1[nH]c2ccccc2c1N=NC(=S)N1CCOCC1`: the IC50 was 12.3 µM and the IC90 amounted to 13.9 µM.

Turning to `Cc1ccn2c(NC3CCCCC3)c(-c3cccc(-c4cccc(Cl)c4)c3)nc2c1`, the 50% inhibitory concentration (IC50) is 14.2 µM and the IC90 turned out to be 27 µM.

For `CCc1nnc(NC(=O)CN2CCN(c3nc(-c4ccccc4)cs3)CC2)s1`, the IC50 was 45.8 µM and the IC90 is 52.4 µM.

`O=C(CCc1nnc(CCCc2ccccc2)o1)NCCCC1CCCC1`: the IC50 was 10.5 µM and the IC90 is 23.1 µM.

For the compound `O=C(NC1CCCCC1)C(c1cccs1)N(CCCN1CCOCC1)C(=O)c1ccc(-c2ccccc2)[nH]1` (stereo not drawn), the IC50 is 40.2 µM and the concentration for an effect of 90% (IC90) is 55.5 µM.

As for `Cn1c(=O)c2c3c(sc2n2c(SCC(N)=O)nnc12)CC(C(C)(C)C)CC3` (stereo not drawn), the IC50 is 19.4 µM and the IC90 came out at 32.9 µM.

For `CCCCS(=O)(=O)/C=C\C=C/S(=O)(=O)CCCC`, the IC50 is 1.35 µM and the IC90 was 1.96 µM.

`COc1ccc(/C=C/CN2CCC(CO)(Cc3ccccc3Cl)CC2)cc1`: the IC50 is 23.1 µM and the IC90 was found to be 26.6 µM.

As to `COc1ccc(-c2ccc(C#N)c(SCC(=O)OCc3ccccc3)n2)cc1OC`, the IC50 was 20.1 µM and the IC90 came out at 69.5 µM.

For the compound `c1ccc(-c2n[nH]c(-c3ccccn3)n2)cc1`, the 50% inhibitory concentration (IC50) is 12.6 µM and the concentration for an effect of 90% (IC90) amounted to 19.3 µM.

For `COc1cccc(C2C3=C(N=c4s/c(=C\c5cccc(O)c5)c(=O)n42)c2ccccc2CC3)c1OC` (stereo not drawn), the IC50 was 23.3 µM and the IC90 worked out at 27.1 µM.

For the compound `C=C1C(=O)O[C@@H]2C[C@@H](C)[C@@H]3C4OC4C(=O)[C@@]3(C)[C@@H](O)[C@H]12` (stereo partly drawn), the IC50 is 3.64 µM and the IC90 came out at 9.39 µM.

Take `COCc1nnc(NC(=O)C2CC(=O)N(c3ccc(C)c(Cl)c3)C2)s1` (stereo not drawn): the IC50 is 51.1 µM and the IC90 was more than 100 µM.

With `CN(c1ccccc1)c1ccc(/C=C/[N+](=O)[O-])cc1`, the IC50 was 8.97 µM and the IC90 is 16.9 µM.

For `COc1ccc(N=c2cc(-c3ccc(O)cc3)oc3ccccc23)cc1`, the IC50 is 22.3 µM and the IC90 turned out to be 25.8 µM.

As for `CSCCC1NC(=O)N(CC(=O)N2N=C(c3ccc(Cl)cc3)CC2c2ccco2)C1=O` (stereo not drawn), the half-maximal inhibitory concentration (IC50) was 10.5 µM and the 90% effect concentration (IC90) amounted to 16 µM.
